Test [1] concerns the target T1, Capsid scaffolding protein (Human cytomegalovirus (strain AD169) (HHV-5) (Human herpesvirus 5), UniProt P16753).
T1 sequence (P16753 whole entry): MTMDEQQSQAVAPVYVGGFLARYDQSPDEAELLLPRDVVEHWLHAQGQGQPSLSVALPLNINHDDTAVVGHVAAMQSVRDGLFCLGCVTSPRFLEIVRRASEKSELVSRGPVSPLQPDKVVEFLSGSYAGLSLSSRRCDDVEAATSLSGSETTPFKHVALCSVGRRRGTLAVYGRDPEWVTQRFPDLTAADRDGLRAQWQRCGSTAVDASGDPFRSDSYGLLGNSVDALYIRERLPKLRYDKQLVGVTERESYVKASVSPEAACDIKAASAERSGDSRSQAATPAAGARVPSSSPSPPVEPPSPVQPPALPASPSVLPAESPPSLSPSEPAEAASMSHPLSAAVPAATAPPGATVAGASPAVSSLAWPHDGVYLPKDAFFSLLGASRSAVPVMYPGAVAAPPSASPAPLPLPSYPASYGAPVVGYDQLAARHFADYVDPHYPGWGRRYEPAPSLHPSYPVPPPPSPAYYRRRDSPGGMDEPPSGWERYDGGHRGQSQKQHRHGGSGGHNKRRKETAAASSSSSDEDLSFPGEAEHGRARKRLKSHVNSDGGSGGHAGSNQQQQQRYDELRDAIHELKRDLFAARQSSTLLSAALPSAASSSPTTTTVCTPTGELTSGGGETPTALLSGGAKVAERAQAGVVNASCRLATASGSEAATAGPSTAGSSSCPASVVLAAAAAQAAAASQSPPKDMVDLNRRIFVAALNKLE
The experiment in a line: Concentration required for inhibition of human cytomegalo virus (HCMV) protease activity. Further details: species or system Human herpesvirus 5 strain AD169.

For test [2], the target named is T1, Capsid scaffolding protein. The test can be described thus: Inhibition of Human cytomegalo virus(HCMV) protease activity measured by HPLC assay. Further details: species or system Human herpesvirus 5 strain AD169.
For test [3], the target named is Prothrombin (Homo sapiens, UniProt P00734). The test can be described thus: Concentration required for 50% thrombin inhibition.
Test [4] concerns the target Acetylcholinesterase (Homo sapiens, UniProt P22303). The experiment in a line: Concentration required for 50% Acetylcholinesterase inhibition.
Test [5] can be described thus: Concentration required for 50% elastase inhibition.

Sequence of Acetylcholinesterase (P22303 whole entry): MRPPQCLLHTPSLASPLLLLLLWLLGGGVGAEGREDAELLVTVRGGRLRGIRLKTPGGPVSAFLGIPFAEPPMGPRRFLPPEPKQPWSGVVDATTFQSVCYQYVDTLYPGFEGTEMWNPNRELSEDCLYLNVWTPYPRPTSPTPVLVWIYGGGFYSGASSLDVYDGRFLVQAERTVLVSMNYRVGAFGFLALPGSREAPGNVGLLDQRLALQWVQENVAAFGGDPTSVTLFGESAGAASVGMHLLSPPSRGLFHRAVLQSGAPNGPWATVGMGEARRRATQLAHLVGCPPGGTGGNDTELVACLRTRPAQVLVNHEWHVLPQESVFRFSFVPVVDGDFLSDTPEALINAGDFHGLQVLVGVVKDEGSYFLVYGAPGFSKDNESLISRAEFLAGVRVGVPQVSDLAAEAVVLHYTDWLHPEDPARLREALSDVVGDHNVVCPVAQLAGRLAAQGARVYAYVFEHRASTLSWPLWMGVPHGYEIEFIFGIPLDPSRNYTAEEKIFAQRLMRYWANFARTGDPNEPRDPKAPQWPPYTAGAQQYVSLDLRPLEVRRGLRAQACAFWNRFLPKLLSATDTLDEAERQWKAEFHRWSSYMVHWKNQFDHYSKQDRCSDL

Take `C[C@@H]1C(=O)N(C(=O)C2[C@@H](C)[C@H]2C)[C@H]2CCN(C(=O)OCc3ccccc3)C12` (some centres undefined): in test [1], inhibition was half-maximal at 72 µM (IC50). This counts as double-digit micromolar.
The compound `C[C@@H]1C(=O)N(C(=O)C2[C@@H](C)[C@@H]2C)[C@H]2CCN(C(=O)OCc3ccccc3)C12` (some centres undefined) yielded a half-maximal inhibitory concentration (IC50) in test [1] greater than 100 µM.
The same measure, in the same setting: the same measure for `C[C@@H]1C(=O)N(C(=O)C2Cc3ccccc32)[C@H]2CCN(C(=O)OCc3ccccc3)C12` (some centres undefined): 11.5 µM.
Regarding `CC1CC1C(=O)N1C(=O)[C@@H](C)C2[C@@H]1CCN2C(=O)OCc1ccccc1` (some centres undefined), in test [1], the IC50 was 10 µM.
On the same count and under the same terms, to `CC(=O)N1C(=O)[C@@H](C)[C@@H]2[C@@H]1CCN2C(=O)[C@@H]1CCCN1C(=O)c1ccccc1` belongs 50 µM.
Take `CC(=O)N1C(=O)[C@@H](C)C2[C@@H]1CCN2C(=O)C(=O)c1cccn1C` (some centres undefined): in test [2], 5 µM corresponded to half-maximal inhibition (IC50).
`CC(C)C(=O)N1C(=O)[C@@H](C)C2[C@@H]1CCN2C(=O)OCc1ccccc1` (some centres undefined) yielded an IC50 in test [2] of 126 µM. Compared with the last compound, the IC50 is about 25-fold higher.
The compound `C[C@@H]1C(=O)N(C(=O)C2CC2)[C@H]2CCN(C(=O)[C@@H]3CCCN3S(=O)(=O)Cc3cccc(N(C)C)c3)[C@H]12` registered an IC50 in test [1] of 2.2 µM.
Same read-out and setting: to `CC(=O)N1C(=O)[C@@H](C)C2[C@@H]1CCN2CC(=O)Cc1ccccc1` (some centres undefined) belongs 79 µM; to `C[C@H]1C(=O)N(C(=O)C2CC2)[C@@H]2CCN(C(=O)CN(C)S(=O)(=O)c3cccc4c(N(C)C)cccc34)[C@H]21`, greater than 100 µM.
As to `C[C@@H]1C(=O)N(C(=O)C2CC2)[C@H]2CCN(C(=O)[C@@H]3CCCN3S(=O)(=O)c3cccc4c(N(C)C)cccc34)[C@H]12`, the half-maximal inhibitory concentration (IC50) was greater than 200 µM in test [3], greater than 100 µM in test [4] and greater than 10 µM in test [5].
`C[C@@H]1C(=O)N(C(=O)C2CC2)[C@H]2CCN(C(=O)[C@@H]3CCCN3S(=O)(=O)c3cccc(C(=O)N(C)C)c3)[C@H]12` yielded an IC50 in test [1] of 1.4 µM.
On the same count and under the same terms, the same measure for `C[C@@H]1C(=O)N(CC(O)COc2ccccc2)[C@H]2CCN(C(=O)OCc3ccccc3)C12` (some centres undefined): greater than 500 µM.
The compound `CC(=O)N1C(=O)[C@H](C)[C@H]2[C@H]1CCN2C(=O)[C@@H]1CCCN1S(=O)(=O)c1ccc(C)cc1` displayed a half-maximal inhibitory concentration (IC50) in test [1] of 159 µM.
Regarding `CC(=O)N1C(=O)[C@@H](C)[C@@H]2[C@@H]1CCN2C(=O)[C@@H]1CCCN1S(=O)(=O)c1cccc2c(N(C)C)cccc12`, the IC50 in test [3] is greater than 200 µM; in test [1], 0.54 µM; in test [4], greater than 100 µM; in test [5] it was greater than 10 µM.
Take `CC(C)Oc1cccc(S(=O)(=O)N2CCC[C@H]2C(=O)N2CC[C@H]3[C@H]2[C@H](C)C(=O)N3C(=O)C2CC2)c1`: the IC50 in test [1] was found to be 65 µM.
Still for that read-out and setting: to `CC(NS(=O)(=O)c1cccc2c(N(C)C)cccc12)C(=O)N1CC[C@@H]2[C@@H]1[C@@H](C)C(=O)N2C(=O)C1CC1` (some centres undefined) belongs 7 µM; to `Cc1ccc(S(=O)(=O)N2CCCC2C(=O)N2CC[C@H]3C2[C@H](C)C(=O)N3C=O)cc1` (some centres undefined), 14 µM.
Regarding `C[C@@H]1C(=O)N(C(=O)C(C)(C)C)[C@H]2CCN(C(=O)OCc3ccccc3)C12` (some centres undefined), the half-inhibitory concentration (IC50) in test [2] was greater than 500 µM.
In the case of `CC(=O)N1C(=O)[C@H](C)[C@H]2[C@H]1CCN2C(=O)[C@@H]1CCCN1S(=O)(=O)c1ccc([N+](=O)[O-])cc1`, half-maximal inhibition in test [1] (IC50) required 11 µM. That is a double-digit micromolar value.
Take `CC(=O)N1C(=O)[C@@H](C)C2[C@@H]1CCN2S(=O)(=O)CCc1ccccc1` (some centres undefined): 45 µM corresponded to half-maximal inhibition in test [1] (IC50).
The compound `C[C@@H]1C(=O)N(C(=O)C2CC2)[C@H]2CCN(C(=O)OCc3ccccc3)C12` (some centres undefined) yielded an IC50 in test [1] of 9 µM.
With `COc1ccc(C(=O)N2C(=O)[C@@H](C)C3[C@@H]2CCN3C(=O)OCc2ccccc2)cc1` (some centres undefined), the IC50 in test [1] was greater than 500 µM.
In the case of `CC(=O)OCC(=O)N1C(=O)C(C)C2C1CCN2C(=O)OCc1ccccc1` (centres undefined), 13 µM corresponded to half-maximal inhibition in test [2] (IC50).
In test [1], `CC(=O)N1C(=O)[C@H](C)[C@H]2[C@H]1CCN2C(=O)[C@@H]1CCCN1C(=O)c1ccccc1` had an IC50 greater than 500 µM.
Take `CC(=O)N1C(=O)[C@H](C)[C@H]2[C@H]1CCN2C(=O)[C@@H]1CCCN1S(=O)(=O)c1cccc2c(N(C)C)cccc12`: the 50% inhibitory concentration (IC50) in test [1] was greater than 500 µM.
With `C[C@H]1C(=O)N(C(=O)C2CC2)[C@@H]2CCN(C(=O)C3CCCCN3S(=O)(=O)c3cccc4c(N(C)C)cccc34)[C@H]21` (some centres undefined), it took 13 µM to reach half-maximal inhibition in test [1] (IC50). That is a double-digit micromolar value.
In test [1], `C[C@@H]1C(=O)N(C=O)[C@H]2CCN(C(=O)OCc3ccccc3)C12` (some centres undefined) returned a half-maximal inhibitory concentration (IC50) of 398 µM.
On the same count and under the same terms, the same measure for `CC(=O)N1C(=O)[C@@H](C)C2[C@@H]1CCN2C(=O)COc1ccccc1` (some centres undefined): 63 µM; for `C[C@@H]1C(=O)N(C(=O)C2C(C)(C)C2(C)C)[C@H]2CCN(C(=O)OCc3ccccc3)C12` (some centres undefined): greater than 500 µM.
Take `CC(=O)OCC(=O)N1C(=O)[C@@H](C)C2[C@@H]1CCN2C(=O)OCc1ccccc1` (some centres undefined): the IC50 in test [2] is 6 µM.
The same measure, in the same setting: to `CC(=O)N1C(=O)[C@@H](C)C2[C@@H]1CCN2C(=O)Cc1c(C)[nH]c2ccc(F)cc12` (some centres undefined) belongs 6 µM.
With `C[C@@H]1C(=O)N(C(=O)C2CCC2)[C@H]2CCN(C(=O)OCc3ccccc3)C12` (some centres undefined), the IC50 in test [2] was 32 µM.
`C[C@@H]1C(=O)N(C(=O)CCO)[C@H]2CCN(C(=O)OCc3ccccc3)C12` (some centres undefined) showed a concentration for half-maximal inhibition (IC50) in test [2] of 133 µM.

These data come from ChEMBL document CHEMBL1135388, “Design and synthesis of pyrrolidine-5,5-trans-lactams (5-oxohexahydropyrrolo[3,2-b]pyrroles) as novel mechanism-based inhibitors of human cytomegalovirus protease. 2. Potency and chirality” (J Med Chem, 2002).
